The values that follow come from PubChem BioAssay AID489041 (Sanford-Burnham Center for Chemical Genomics, 2010).

Calls of active or inactive are those of the source. No rule for the calls is given here.

The subject of this test is HEK-293T NF-kB luciferase reporter counterscreen, luminescence. Kind of test: NF-kB reporter inhibition in HEK-293T, dose response, counter-screen for T-cell antigen receptor NF-kB inhibitors, HEK-293T cells, luminescence (AID 489041). (A counterscreen serves to expose hits that act by an unwanted route or on another target.)
Take `O=C(Nc1ccc(Cl)c(S(=O)(=O)N2CCOCC2)c1)c1ccc(OCC2CCCO2)cc1` (stereo unspecified): the IC50 is 3.14 µM.

With `COc1ccc(C)cc1NS(=O)(=O)c1ccc(-c2cnc(C3CC3)o2)cc1`, the IC50 is 0.84 µM.

Consider `CC1CCCN(c2ncnc3c2cnn3-c2ccc(Cl)cc2)C1` (stereo unspecified), for which the IC50 is 8.88 µM.

Turning to `Cn1nc(-c2ccccn2)nc2c(=O)n(C)c(=O)nc1-2`, the IC50 was 5.68 µM. In the case of `Cc1c(C)c2ccc(OCC(=O)Nc3ccccn3)c(C)c2oc1=O`, the IC50 was 1.78 µM.

Turning to `COc1ccc(NS(=O)(=O)c2ccc(-c3cnc(C4CC4)o3)cc2)cc1OC`, the IC50 is 1 µM.

In the case of `CC1Cc2cc(-c3csc(NC(=O)Cc4cccs4)n3)ccc2N1S(C)(=O)=O` (stereo unspecified), the IC50 is 2 µM.

For `N#Cc1ccc(-c2cccs2)nc1SCc1cccnc1`, the IC50 was 0.94 µM. The value for `O=C(Nc1ccc(S(=O)(=O)N2CCOCC2)cc1)c1ccc(CN2CCc3ccccc3C2)cc1` was 1.29 µM; that for `O=C(Cc1ccc(-c2ccccc2)cc1)NCc1ccccc1` was under 0.16 µM. In the case of `COC(=O)c1cnc(Oc2ccc(NC(=O)NC(=O)c3c(F)cccc3Cl)cc2)cc1C(F)(F)F`, the IC50 is 25.8 µM (inactive). Consider `C=C(C)C(=O)O[C@H]1C/C(C)=C\C(=O)/C=C(\C)[C@H](O)[C@@H]2OC(=O)C(=C)[C@@H]21`, for which the IC50 is 19.7 µM. The value for `CC(C)c1oc(=O)cc2c1[C@@H](O)[C@H]1OC(=O)[C@@]3(C)CC[C@@H](O)[C@@]2(C)C13` (stereo partly specified) was 4.59 µM; that for `CCOCCCNC(=O)c1ccc2c(c1)N=C(CC)c1cc(Br)ccc1S2` was 1.46 µM. For the molecule `CCn1c2ccccc2c2cc(NC(=O)c3cc(OC)c(OC)c(OC)c3)ccc21`, the IC50 is 3.97 µM. The result for `CCCOCCOC(=O)c1[nH]c2c(c1C)C(=O)CC(c1cc(OC)ccc1OC)C2` (stereo unspecified) reads 1 µM; that for `O=[N+]([O-])c1ccc(O)c(/C=N/Nc2ccc(Cl)nn2)c1`, > 80 µM (inactive); that for `C=C1C(=O)C=C2CN(C(=O)c3ccccc3)[C@@](Cc3ccc(F)cc3)(C(=O)OC)[C@@H]12`, 11 µM. For `COc1ccc(C2=NOC(C(=O)NCc3ccc(F)cc3)C2)cc1OC` (stereo unspecified), the IC50 is 14.7 µM. The result for `COc1ccccc1C1=NOC(COc2ccc3c(C)cc(=O)oc3c2)C1` (stereo unspecified) reads 4.89 µM; that for `O=C1CC(c2cccc(Br)c2)c2cc3c(cc2N1)CCC3` (stereo unspecified), 6.52 µM. The result for `O=C(Nc1cccc(C(F)(F)F)c1)c1sc(Cl)nc1C(F)(F)F` reads 40.6 µM (inactive). The result for `COc1cc(C2c3cc4c(cc3CC3COC(=O)C32)OCO4)cc(OC)c1OC` (stereo unspecified) reads > 80 µM (inactive); that for `CC[C@]1(O)CC2CN(CCc3c([nH]c4ccccc34)[C@@](C(=O)OC)(c3cc4c(cc3OC)N(C=O)[C@H]3[C@@](O)(C(=O)OC)[C@H](OC(C)=O)[C@]5(CC)C=CCN6CC[C@]43[C@@H]65)C2)C1` (stereo partly specified), 3.12 µM. `Cc1ccc2[nH]c(-c3cccc(F)c3)cc(=O)c2c1`: the IC50 is > 80 µM (inactive).

For `Cc1ccc(NS(=O)(=O)c2ccc(-c3cnc(C4CC4)o3)cc2)c(C)c1`, the IC50 is 1.47 µM. The result for `Cc1ccc(S(=O)(=O)Nc2ccccc2-c2ccccc2)cc1` reads 8.86 µM; that for `CCc1cc2c(=O)nc3n(c2s1)Cc1ccccc1/C3=C(/O)c1cccc([N+](=O)[O-])c1`, > 80 µM (inactive). The result for `Cc1c(C(=O)N/N=C/c2ccc(Cl)cc2)[nH]c2ccc(Cl)cc12` reads 1.95 µM; that for `Cc1ccc(C(=O)c2cc([N+](=O)[O-])ccc2N2CCCCC2)cc1`, 4.17 µM; that for `CC(=O)NC(c1ccc(C(C)C)cc1)c1ccc2cccnc2c1O` (stereo unspecified), 40.7 µM (inactive). The value for `CCOC(=O)c1[nH]c(C)c(C(=O)c2cc(F)ccc2F)c1C` was 6.54 µM; that for `Cc1ccc2c(c1)sc(-c1ccc(N(C)C)cc1)[n+]2C` was 0.87 µM. Regarding `COc1cccc(N2CCN(C(=O)c3cn(Cc4ccccc4)nc3-c3cccnc3)CC2)c1`, the IC50 was 16.4 µM. The value for `COC(=O)Cc1[nH]n(-c2nc3ccccc3s2)c(=O)c1C(C)=Nc1ccc(OC)cc1` was under 0.16 µM. The value for `C=CC[C@@H](CC/C=C/C=C/CC/C=C\[C@@H]1CSC([C@@H]2C[C@@H]2C)=N1)OC` was 3.72 µM; that for `CCCOc1ccccc1C1CC(=O)Nc2cc3c(cc21)OCO3` (stereo unspecified) was 2.25 µM; that for `C#CC[N+](C)(C)CCCCCCCCCCCC` was 25.1 µM (inactive).

Consider `CCN(CC)S(=O)(=O)c1cc(NC(=O)CNc2cccc(S(=O)(=O)N3CCCC3)c2)ccc1C`, for which the IC50 was 2.52 µM. Take `Cn1cc(/C=N/n2cnc3scc(-c4ccc(Cl)cc4)c3c2=O)c2ccccc21`: the IC50 was 0.22 µM. The result for `COc1cccc(N2CCN(c3ncnc4c3cnn4-c3ccc(C)cc3C)CC2)c1` reads 2.07 µM; that for `CCC(=O)N1c2ccc(S(=O)(=O)N3CCN(c4ccc([N+](=O)[O-])cc4)CC3)cc2CC1C` (stereo unspecified), > 80 µM (inactive); that for `CCOC(=O)c1[nH]c(C)c(C(=O)Nc2cc(Cl)ccc2C)c1C`, 4.39 µM. The result for `Oc1ccccc1N=Nc1nc(-c2ccccc2)c(-c2ccccc2)[nH]1` reads 2.84 µM; that for `COc1ccc(CNS(=O)(=O)c2cc(-c3cc(C)no3)ccc2C(C)C)cc1`, 10.9 µM; that for `COc1ccc(NS(=O)(=O)c2cc(-c3cnc(C4CC4)o3)ccc2C)cc1`, 9.37 µM.

As for `Cc1cc(C)nc(SCC(=O)Nc2ccnc3ccccc23)n1`, the IC50 was 9.08 µM.

As for `Cc1ccc(S(=O)(=O)NCc2ccncc2)c(C)c1C`, the IC50 was 0.3 µM. The value for `O=C1CC(c2cc(Br)ccc2F)c2cc3c(cc2N1)CCC3` (stereo unspecified) was > 80 µM (inactive); that for `CC1=NNC(=O)/C1=C\c1cn(-c2ccccc2)nc1-c1ccc(Cl)cc1` was 7.76 µM.

In the case of `Cc1c(C(=O)N/N=C/c2c(O)ccc3ccccc23)nnn1-c1nonc1N`, the IC50 was > 80 µM (inactive). The value for `O=C(N/N=C\c1c(O)ccc2ccccc12)c1cncc(Br)c1` was 11.2 µM. The result for `O=C(CSc1nnc(Cn2nnc3ccccc32)o1)N(Cc1ccc(F)cc1)c1ccccc1` reads 0.94 µM; that for `CCN(c1ccccc1)S(=O)(=O)c1ccc(C(=O)NC2CCN(Cc3ccccc3)CC2)cc1`, 3.14 µM. Turning to `Cc1ccc(S(=O)(=O)Cc2ccc(C(=O)N3CCN(c4cccc(C)c4C)CC3)o2)cc1`, the IC50 was 3.22 µM. The result for `C/C=C(\C)C(=O)N[C@@H](c1ccccc1)[C@@H](O)C(=O)O[C@H]1C[C@@]2(O)[C@@H](OC(=O)c3ccccc3)C3[C@](C)(C(=O)[C@H](OC(C)=O)C(=C1C)C2(C)C)[C@@H](O)C[C@H]1OC[C@@]31OC(C)=O` (stereo partly specified) reads > 80 µM (inactive); that for `CC1(C)CC(N2CCN(C(c3ccccc3)c3ccccc3)CC2)=CC(=[N+]2CCCCC2)C1`, 1.25 µM.

For `C=C(C)[C@@]12OC3(c4ccccc4)O[C@@H]1C1[C@@H]4O[C@]4(CO)[C@@H](O)[C@]4(O)C(=O)C(C)=C[C@H]4[C@@]1(O3)[C@H](C)[C@H]2OC(=O)/C=C/C=C/c1ccccc1` (stereo partly specified), the IC50 was under 0.16 µM. As to `c1ccc(-c2cccc(-c3ccccn3)n2)nc1`, the IC50 is > 80 µM (inactive). The result for `O=C(/C=C/c1cccc([N+](=O)[O-])c1)n1cnc2ccccc21` reads 51.3 µM (inactive); that for `Cc1cc(-c2ccc(C)c(S(=O)(=O)N3CCN(c4ccc([N+](=O)[O-])cc4)CC3)c2)on1`, > 80 µM (inactive).

By IC50 is commonly meant the concentration that gives 50% inhibition.
